Patent publication US11674962B2, “Therapeutic and diagnostic methods for cancer” (Genentech, Inc., priority 2017, dated 2023)

How the values were obtained:
[1] = test system: locally advanced or metastatic non-small cell lung cancer (NSCLC); test: POPLAR phase II clinical trial (NCT01903993): atezolizumab vs docetaxel, outcomes by bTMB score; assay type: in vivo, human; details: bTMB≥16, per treatment arm
Description: (§1) A blood-based assay was used to evaluate the association between clinical response to treatment with atezolizumab (MPDL3280A) and blood tumor mutational burden (bTMB) score in patients with non-small cell lung cancer (NSCLC) enrolled in two clinical trials, a phase II clinical trial, POPLAR (Clinical Trial ID No.: NCT01903993), and a phase III clinical trial, OAK (Clinical Trial ID No.: NCT02008227), in which atezolizumab was administered as a monotherapy.
(§2) Pre-treatment blood samples from patients with NSCLC who were enrolled in the POPLAR and/or the OAK studies, in which atezolizumab was administered as a monotherapy, were evaluated for bTMB score and/or maximum somatic allele frequency (MSAF).
The POPLAR (Clinical Trial ID No.: NCT01903993) patient population evaluated for bTMB score consisted of 273 patients. Patients were eligible for enrollment in the POPLAR study if they had locally advanced or metastatic (e.g., stage IIIB, stage IV, or recurrent) non-small cell lung cancer (NSCLC); disease progression during or following treatment with a prior platinum-containing regimen for locally advanced, unresectable/inoperable, or metastatic NSCLC, or disease recurrence within 6 months of treatment with a platinum-based adjuvant/neoadjuvant regimen; measurable disease, as defined by RECIST v1.1; and an Eastern Cooperative Oncology Group (ECOG) performance status of 0 or 1. Participants were randomized to receive either atezolizumab at a dose of 1200 mg intravenously every three weeks or docetaxel 75 mg per meter square (mg/m^2) intravenously every three weeks. Treatment with atezolizumab could be continued as long as participants were experiencing clinical benefit, i.e., in the absence of unacceptable toxicity or symptomatic deterioration attributed to disease progression.
(§3) Analysis of bTMB was performed retrospectively. Progression-free survival (PFS) was defined as the time between date of randomization and date of first documented disease progression as assessed by the investigator using RECIST v.1.1 or death from any cause, whichever occurred first. Overall survival (OS) was defined as the time between the date of randomization until death due to any cause. Treatment arms were compared for OS and PFS individually using a univariate Cox regression model without stratification in the biomarker evaluable-population (BEP) and their subgroups or using a stratified (by randomization stratification factors) Cox model in the ITT population. No multiplicity correction was applied to p-values or confidence intervals (CI). Kaplan-Meier methodology was used to estimate median OS and PFS and construct survival curves.
In the POPLAR ITT population (N=287), 273 samples were available for analysis. Of these, 6 were removed for sample contamination >1%; 9 were removed for median exon coverage <800×; and 47 were removed for low MSAF<1%.
The POPLAR BEP (N=211) includes 15 patients with EGFR mutation or ALK rearrangement, and 196 without known alterations.
(§4) To identify somatic mutations and calculate a bTMB score, whole blood samples obtained from each patient (collected in EDTA or Streck tubes) were processed through a series of spins to isolate plasma, from which cell free DNA (cfDNA) was extracted for sequencing analysis. Specifically, at least 20 ng purified cfDNA was used for library construction. Next-generation sequencing libraries using fragment barcodes and hybrid capture were constructed to analyze and sequence a pre-determined set of 394 genes that covered approximately 1.125 Mb of the exome. Specifically, purified libraries were hybrid captured using a 394-gene bait set and then further purified, pooled and loaded on an ILLUMINA® HISEQ® 4000 sequencing system. Sequenced libraries were aligned and sorted. […]

[2] = test system: locally advanced or metastatic non-small cell lung cancer (NSCLC); test: OAK phase III clinical trial (NCT02008227): atezolizumab vs docetaxel, outcomes by bTMB score and PD-L1 IHC; assay type: in vivo, human; details: OAK
Description: as §1, §2
The OAK (Clinical Trial ID No.: NCT02008227) patient population evaluated for bTMB score consisted of 583 patients. Patients were eligible for enrollment in the OAK study if they had locally advanced or metastatic (e.g., stage IIIB, stage IV, or recurrent) NSCLC; disease progression during or following treatment with a prior platinum-containing regimen for locally advanced, unresectable/inoperable, or metastatic NSCLC, or disease recurrence within 6 months of treatment with a platinum-based adjuvant/neoadjuvant regimen; measurable disease, as defined by RECIST v1.1; and an ECOG performance status of 0 or 1. Participants were randomized to receive either atezolizumab at a dose of 1200 mg intravenously every three weeks or docetaxel 75 mg per square meter (mg/m^2) intravenously every three weeks. Treatment with atezolizumab could be continued as long as participants were experiencing clinical benefit, i.e., in the absence of unacceptable toxicity or symptomatic deterioration attributed to disease progression.
as §3
In the OAK ITT population (N=850), 797 samples were available for analysis. Of these samples, 13 were removed for sample contamination >1%; 42 were removed for median exon coverage <800×; and 100 were removed for low MSAF<1%.
The OAK BEP (N=642) included 59 patients with EGFR mutation or ALK rearrangement, and 583 without known alterations.
as §4, with “sorted. In order to accurately call variants at low allele frequencies and minimize artifacts from sequencing, PCR, or DNA damage-related errors, sequenced libraries were processed by a cfDNA computational pipeline that corrected errors via the use of fragment barcodes.” for “sorted.”

CC(=O)O[C@@]12CO[C@@H]1C[C@H](O)[C@@]1(C)C(=O)[C@H](O)C3=C(C)[C@@H](OC(=O)[C@H](O)[C@@H](NC(=O)OC(C)(C)C)c4ccccc4)C[C@@](O)([C@@H](OC(=O)c4ccccc4)[C@H]21)C3(C)C [docetaxel]
median OS [1]: 7.4 months | median PFS [1]: 2.9 months | median OS ([2]; bTMB≥16, per treatment arm): 6.8 months | best overall response rate ([2]; bTMB≥16 patients, per treatment arm): 10%
